# According to US8580809B2, “Filamin A-binding anti-inflammatory analgesic” (Pain Therapeutics, Inc., priority 2009, dated 2013):
# Target: T1, mu opiate receptor (MOR) (Rattus norvegicus, UniProt P33535)
# T1 construct: from tissue; host or cells: rat striatal membrane preparation
# Test: MOR agonist activity using [35S]GTPγS binding assay in striatal membranes
# Type: biochemical
# Details: for MOR agonist activity, [35S]GTPγS binding to Gαo, FLNA-binding compound as agonist 0.1 μM: 0.1 μM compound; for MOR agonist activity, [35S]GTPγS binding to Gαo, FLNA-binding compound as agonist 0.1 μM / MOR agonist activity, [35S]GTPγS binding to Gαo, FLNA-binding compound as agonist 1 μM: striatal membranes; for MOR agonist activity, [35S]GTPγS binding to Gαo, 1 μM + BFNA: 1 μM compound + 1 μM β-funaltrexamine; for MOR agonist activity, [35S]GTPγS binding to Gαo, FLNA-binding compound as agonist 1 μM: 1 μM compound
# Experimental: To assess the mu opiate receptor (MOR) agonist activity of positive compounds from the FLNA screening, compounds were tested in a [^35S]GTPγS binding assay using striatal membranes.
# Striatal tissue was homogenized in 10 volumes of ice cold 25 mM HEPES buffer, pH 7.4, which contained 1 mM EGTA, 100 mM sucrose, 50 μg/ml leupeptin, 0.04 mM PMSF, 2 μg/ml soybean trypsin inhibitor and 0.2% 2-mercaptoethanol. The homogenates were centrifuged at 800×g for 5 minutes and the supernatants were centrifuged at 49,000×g for 20 minutes.
# The resultant striatal membrane preparation (200 μg) was admixed and maintained (incubated) at 30° C. for 5 minutes in reaction buffer as above that additionally contained 1 mM MgCl2 and 0.5 nM [^35S]GTPγS (0.1 μCi/assay, PerkinElmer Life and Analytical Sciences) in a total volume of 250 μl and continued for 5 minutes in the absence or presence of 0.1-10 μM of an assayed compound of interest. The reaction was terminated by dilution with 750 μl of ice-cold reaction buffer that contained 20 mM MgCl2 and 1 mM EGTA and immediate centrifugation at 16,000×g for 5 minutes.
# The resulting pellet was solubilized by sonicating for 10 seconds in 0.5 ml of immunoprecipitation buffer containing 0.5% digitonin, 0.2% sodium cholate and 0.5% NP-40. Normal rabbit serum (1 μl) was added to 1 ml of lysate and incubated at 25° C. for 30 minutes. Nonspecific immune complexes were removed by incubation with 25 μl of protein A/G-conjugated agarose beads at 25° C. for 30 minutes followed by centrifugation at 5,000×g at 4° C. for 5 minutes. The supernatant was divided and separately incubated at 25° C. for 30 minutes with antibodies raised against Gαo proteins (1:1,000 dilutions).
# The immunocomplexes so formed were collected by incubation at 25° C. for 30 minutes with 40 μl of agarose-conjugated protein A/G beads and centrifugation at 5,000×g at 4° C. for 5 minutes. The pellet was washed and suspended in buffer containing 50 mM Tris-HCl, pH 8.0, and 1% NP-40. The radioactivity in the suspension was determined by liquid scintillation spectrometry. […] DAMGO (H-Tyr-D-Ala-Gly-N-MePhe-Gly-OH; 1 or 10 μM) was used as a positive control.
# T1 sequence (P33535 whole entry): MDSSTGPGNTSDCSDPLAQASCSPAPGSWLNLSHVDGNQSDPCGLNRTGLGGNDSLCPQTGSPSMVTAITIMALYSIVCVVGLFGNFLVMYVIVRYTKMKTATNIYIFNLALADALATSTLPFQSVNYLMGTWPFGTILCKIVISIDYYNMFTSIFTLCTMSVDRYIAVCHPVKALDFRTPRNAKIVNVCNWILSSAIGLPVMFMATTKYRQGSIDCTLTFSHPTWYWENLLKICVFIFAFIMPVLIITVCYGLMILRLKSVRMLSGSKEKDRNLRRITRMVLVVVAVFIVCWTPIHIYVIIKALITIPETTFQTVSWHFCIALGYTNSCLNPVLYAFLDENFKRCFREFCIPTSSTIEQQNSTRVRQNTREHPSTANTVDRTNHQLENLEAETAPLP
Compound,"MOR agonist activity, [35S]GTPγS binding to Gαo, FLNA-binding compound as agonist 0.1 μM [%]","MOR agonist activity, [35S]GTPγS binding to Gαo, 1 μM + BFNA [%]","MOR agonist activity, [35S]GTPγS binding to Gαo, FLNA-binding compound as agonist 1 μM [%]"
O=S(=O)(c1ccc(Br)cc1F)N1CCC2(CC1)OCCN2S(=O)(=O)c1ccc(Br)cc1F [Compound C0078],138.1,170.7,236.6
CC(=O)c1ccc(S(=O)(=O)N2CCC3(CC2)OCC(CCCCN(C)C)N3S(=O)(=O)c2ccc(C(C)=O)cc2)cc1 (stereo not drawn) [Compound C0080M],187.9,167.1,205.4
CC(=O)c1ccc(S(=O)(=O)N2CCC3(CC2)NC(=O)C(Cc2cnc[nH]2)N3S(=O)(=O)c2ccc(C(C)=O)cc2)cc1 (stereo not drawn) [Compound C0084M],163.1,133.2,255.5
CC(=O)c1ccc(S(=O)(=O)N2CCC3(CC2)NC(=O)CN3Cc2ccccc2)cc1 [Compound C0085M],211.6,43.7,246.2
O=C1CN(Cc2ccccc2)C2(CCN(S(=O)(=O)c3cc(Cl)cc(Cl)c3O)CC2)N1 [Compound C0138M],126.9,51.5,183.9
O=S(=O)(c1ccc2ccccc2c1)N1CCC2(CC1)OCCN2S(=O)(=O)c1ccc2ccccc2c1 [Compound C0140M],126.1,83.0,215.4
O=S(=O)(c1cccs1)N1CCC2(CC1)OCCN2S(=O)(=O)c1cccs1 [Compound C0141M],161.5,47.9,213.9
O=S(=O)(c1cccc2cccnc12)N1CCC2(CC1)OCCN2S(=O)(=O)c1cccc2cccnc12 [Compound C0143M],81.0,86.5,193.3
COc1ccc(S(=O)(=O)N2CCC3(OCCN3S(=O)(=O)c3ccc(OC)cc3)C3CCCCC32)cc1 (stereo not drawn) [Compound C0144M],186.3,125.9,295.9
COc1ccc(S(=O)(=O)N2CCCC3(C2)OCCN3S(=O)(=O)c2ccc(OC)cc2)cc1 (stereo not drawn) [Compound C0145M],193.0,87.0,289.2
O=S(=O)(c1ccc(Oc2ccccc2)cc1)N1CCC2(CC1)OCCN2S(=O)(=O)c1ccc(Oc2ccccc2)cc1 [Compound C0149M],209.8,93.4,406.7
O=S(=O)(c1csc2ccccc12)N1CCC2(CC1)OCCN2S(=O)(=O)c1csc2ccccc12 [Compound C0150M],167.1,158.1,423.1
COc1ccc(NC(=O)N2CCC3(CC2)OCCN3C(=O)Nc2ccc(OC)cc2)cc1 [Compound C0151M],346.8,212.8,397.6
"C[C@@H](NC(=O)[C@@H](N)Cc1ccc(O)cc1)C(=O)NCC(=O)N(C)[C@@H](Cc1ccccc1)C(=O)NCCO [DAMGO, reference compound]",168.5,53.2,266.1
